The results in this text go back to ChEMBL document CHEMBL1151717, “In vivo active aldosterone synthase inhibitors with improved selectivity: lead optimization providing a series of pyridine substituted 3,4-dihydro-1H-quinolin-2-one derivatives” (J Med Chem, 2008).

One series has as its target T1, CYP19 (aromatase) (Homo sapiens, UniProt P11511).
T1 sequence (P11511 whole entry): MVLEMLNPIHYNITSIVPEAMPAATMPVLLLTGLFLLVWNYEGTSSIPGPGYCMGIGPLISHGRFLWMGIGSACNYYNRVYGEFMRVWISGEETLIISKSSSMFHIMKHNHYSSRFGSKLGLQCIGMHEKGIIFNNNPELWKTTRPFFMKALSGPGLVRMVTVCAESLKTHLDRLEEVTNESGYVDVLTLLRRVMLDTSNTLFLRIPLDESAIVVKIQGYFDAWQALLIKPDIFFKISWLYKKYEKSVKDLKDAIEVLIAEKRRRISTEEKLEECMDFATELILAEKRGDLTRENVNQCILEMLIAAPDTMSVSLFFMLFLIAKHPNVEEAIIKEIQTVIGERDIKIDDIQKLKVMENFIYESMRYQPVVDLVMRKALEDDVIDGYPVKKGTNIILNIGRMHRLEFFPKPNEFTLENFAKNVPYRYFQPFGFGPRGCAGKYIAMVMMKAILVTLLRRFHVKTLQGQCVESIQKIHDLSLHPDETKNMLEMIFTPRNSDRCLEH
Briefly: Inhibition of human placental CYP19 at 500 nM. It counts as functional.

A further series addresses T2, CYP1A2 (Homo sapiens, UniProt P05177).
T2 sequence (P05177 whole entry): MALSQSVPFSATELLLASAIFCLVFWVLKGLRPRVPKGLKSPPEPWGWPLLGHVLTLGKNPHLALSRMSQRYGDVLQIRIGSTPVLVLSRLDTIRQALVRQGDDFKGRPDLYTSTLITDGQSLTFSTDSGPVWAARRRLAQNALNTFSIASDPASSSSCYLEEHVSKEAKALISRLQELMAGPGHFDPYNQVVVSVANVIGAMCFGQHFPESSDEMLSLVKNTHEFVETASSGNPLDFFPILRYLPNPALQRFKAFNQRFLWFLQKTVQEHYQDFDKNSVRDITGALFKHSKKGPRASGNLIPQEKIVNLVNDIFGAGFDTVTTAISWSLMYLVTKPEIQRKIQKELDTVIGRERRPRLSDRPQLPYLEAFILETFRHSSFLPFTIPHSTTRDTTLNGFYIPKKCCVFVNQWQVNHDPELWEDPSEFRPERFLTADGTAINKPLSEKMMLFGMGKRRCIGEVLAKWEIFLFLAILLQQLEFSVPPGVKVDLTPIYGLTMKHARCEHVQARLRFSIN
Briefly: Inhibition of human recombinant CYP1A2 expressed in baculovirus-infected insect microsomes at 2 uM. It counts as ADME, Microsome.

The target of a further series is T3, Cytochrome P450 2B6 (Homo sapiens, UniProt P20813).
T3 sequence (P20813 whole entry): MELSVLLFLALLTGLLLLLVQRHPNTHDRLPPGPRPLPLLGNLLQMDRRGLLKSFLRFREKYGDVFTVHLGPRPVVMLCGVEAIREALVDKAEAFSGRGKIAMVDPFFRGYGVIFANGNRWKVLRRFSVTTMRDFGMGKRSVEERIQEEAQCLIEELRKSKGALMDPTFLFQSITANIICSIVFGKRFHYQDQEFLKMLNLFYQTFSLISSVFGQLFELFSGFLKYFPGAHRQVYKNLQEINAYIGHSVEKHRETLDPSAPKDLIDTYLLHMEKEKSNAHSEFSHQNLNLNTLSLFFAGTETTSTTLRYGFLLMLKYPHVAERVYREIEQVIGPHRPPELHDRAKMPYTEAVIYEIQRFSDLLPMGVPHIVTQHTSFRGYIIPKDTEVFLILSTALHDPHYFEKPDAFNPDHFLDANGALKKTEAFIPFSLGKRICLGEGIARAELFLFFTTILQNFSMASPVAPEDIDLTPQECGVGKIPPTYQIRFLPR
Briefly: Inhibition of human recombinant CYP2B6 expressed in baculovirus-infected insect microsomes. It counts as ADME, Microsome.

The target of a further series is Cytochrome P450 2C9 (Homo sapiens, UniProt P11712). Briefly: Inhibition of human recombinant CYP2C9 expressed in baculovirus-infected insect microsomes. It counts as ADME, Microsome.
Chain of Cytochrome P450 2C9 (P11712 whole entry): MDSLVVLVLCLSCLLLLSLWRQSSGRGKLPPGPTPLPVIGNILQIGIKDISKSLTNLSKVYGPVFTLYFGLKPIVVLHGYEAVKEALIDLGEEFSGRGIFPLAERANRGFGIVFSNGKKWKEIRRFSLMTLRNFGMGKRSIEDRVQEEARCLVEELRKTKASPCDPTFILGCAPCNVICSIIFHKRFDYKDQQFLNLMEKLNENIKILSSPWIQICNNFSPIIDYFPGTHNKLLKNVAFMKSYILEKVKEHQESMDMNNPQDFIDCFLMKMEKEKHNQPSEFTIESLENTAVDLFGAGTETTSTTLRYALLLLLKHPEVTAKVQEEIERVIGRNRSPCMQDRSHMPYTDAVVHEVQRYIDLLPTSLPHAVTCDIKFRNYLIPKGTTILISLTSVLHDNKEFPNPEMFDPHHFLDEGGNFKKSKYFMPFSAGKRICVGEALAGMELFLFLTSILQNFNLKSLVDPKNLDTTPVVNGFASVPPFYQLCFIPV
A further series concerns the target Cytochrome P450 2C19 (Homo sapiens, UniProt P33261). Briefly: Inhibition of human recombinant CYP2C19 expressed in baculovirus-infected insect microsomes. The series is classed as ADME, Microsome. As to conditions: read-out: IC50.
For series [1], the target named is T4, Cytochrome P450 11B2, mitochondrial (Homo sapiens, UniProt P19099).
T4 sequence (P19099 whole entry): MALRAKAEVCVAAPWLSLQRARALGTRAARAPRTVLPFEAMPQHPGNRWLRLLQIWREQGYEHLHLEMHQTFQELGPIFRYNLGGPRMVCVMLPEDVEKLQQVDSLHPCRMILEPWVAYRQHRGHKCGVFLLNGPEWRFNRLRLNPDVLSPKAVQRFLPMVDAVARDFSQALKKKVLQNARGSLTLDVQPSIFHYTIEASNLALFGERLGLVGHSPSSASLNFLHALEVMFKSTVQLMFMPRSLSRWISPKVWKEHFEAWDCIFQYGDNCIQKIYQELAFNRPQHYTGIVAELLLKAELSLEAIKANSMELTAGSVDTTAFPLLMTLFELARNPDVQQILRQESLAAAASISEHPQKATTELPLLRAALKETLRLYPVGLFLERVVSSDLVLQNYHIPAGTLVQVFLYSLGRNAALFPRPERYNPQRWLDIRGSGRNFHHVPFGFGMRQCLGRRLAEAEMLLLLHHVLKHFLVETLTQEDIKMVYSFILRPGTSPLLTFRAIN

Series [2] addresses T5, Cytochrome P450 11B1, mitochondrial (Homo sapiens, UniProt P15538).
T5 sequence (P15538 whole entry): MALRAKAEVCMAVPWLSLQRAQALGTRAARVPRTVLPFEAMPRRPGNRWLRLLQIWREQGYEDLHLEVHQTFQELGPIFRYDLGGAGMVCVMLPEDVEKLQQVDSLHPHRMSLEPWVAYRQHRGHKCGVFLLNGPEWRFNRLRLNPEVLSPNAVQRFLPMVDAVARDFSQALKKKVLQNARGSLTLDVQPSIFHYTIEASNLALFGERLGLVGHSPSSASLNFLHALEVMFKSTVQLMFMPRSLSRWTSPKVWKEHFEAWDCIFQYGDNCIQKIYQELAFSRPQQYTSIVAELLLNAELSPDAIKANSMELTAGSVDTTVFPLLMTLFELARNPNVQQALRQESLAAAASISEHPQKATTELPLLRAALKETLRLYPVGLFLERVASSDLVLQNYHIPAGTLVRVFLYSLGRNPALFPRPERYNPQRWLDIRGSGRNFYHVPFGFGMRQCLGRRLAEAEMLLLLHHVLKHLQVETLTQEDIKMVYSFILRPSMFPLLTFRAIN

Chain of Cytochrome P450 2C19 (P33261 whole entry): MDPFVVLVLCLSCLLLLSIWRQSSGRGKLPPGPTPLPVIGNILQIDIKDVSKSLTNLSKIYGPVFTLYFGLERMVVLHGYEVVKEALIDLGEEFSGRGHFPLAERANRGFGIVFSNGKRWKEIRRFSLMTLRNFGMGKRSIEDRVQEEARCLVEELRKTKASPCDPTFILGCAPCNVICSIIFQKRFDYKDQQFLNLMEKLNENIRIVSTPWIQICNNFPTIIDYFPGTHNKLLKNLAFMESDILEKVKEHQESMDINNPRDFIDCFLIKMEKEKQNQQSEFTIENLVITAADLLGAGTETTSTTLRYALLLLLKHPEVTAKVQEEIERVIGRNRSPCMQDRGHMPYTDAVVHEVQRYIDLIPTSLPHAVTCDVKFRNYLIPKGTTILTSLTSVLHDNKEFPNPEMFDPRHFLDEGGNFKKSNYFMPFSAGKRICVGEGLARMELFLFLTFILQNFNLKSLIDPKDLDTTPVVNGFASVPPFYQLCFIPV

Consider `O=C1CCc2cc(-c3cncc4ccccc34)ccc2N1`, for which, on CYP19 (aromatase), the inhibition (in general, the percentage by which the read-out fell short of the control) at 0.5 µM was less than 5%. Moreover, the inhibition at 2 µM on CYP1A2 was less than 5%. Also, the IC50 (commonly the concentration needed to halve the response being measured) was less than 100 µM at Cytochrome P450 2B6; 2.9 µM on Cytochrome P450 2C9; 9.2 µM on Cytochrome P450 2C19; 0.0002 µM in series [1]; 0.033 µM in series [2].

The compound `O=C1CCc2cc(-c3cccnc3)ccc2C1` gave an inhibition at 0.5 µM on CYP19 (aromatase) of 31%. In addition, the inhibition at 2 µM on CYP1A2 amounted to 60%. For the same compound, the IC50 on Cytochrome P450 2B6 is less than 50 µM; at Cytochrome P450 2C9 it was 28.3 µM; on Cytochrome P450 2C19, 41.5 µM; in series [1], 0.0078 µM; in series [2] it was 3.96 µM.

Regarding `COc1cncc(-c2ccc3c(c2)CCC(=O)C3)c1`, at CYP19 (aromatase), 0.5 µM produced 58% inhibition. In addition, the inhibition at 2 µM on CYP1A2 turned out to be 57%. In addition, the IC50 at Cytochrome P450 2B6 is less than 50 µM; at Cytochrome P450 2C9 it was 12.9 µM; on Cytochrome P450 2C19 it was 45.4 µM; in series [1], 0.0018 µM; in series [2], 0.191 µM.
